# Measured values taken from patent US20060035810A1, “Regulation of ins(3456)p4 signalling by a reversible kinase phosphatase and methods and compositions related thereto” (priority 2002, published 2006).
# Assays:
# [1] = system: insulin granules in pancreatic β-cells; assay: Insulin granule acidification, LSG fluorescence with patch-clamp and confocal imaging; format: cell-based, mouse; conditions: DIDS 100 μM in bath solution 30 min prior to patching
# Procedure: FIG. 6. Ins(3,4,5,6)P4 inhibits acidification of insulin granules in pancreatic β-cells. FIG. 6A, Representative time-courses for intragranular acidification, monitored by increased fluorescence of LSG before and after establishment of the standard whole-cell configuration (see arrow) and the effect of perfusion of intracellular medium (containing 0.4 μM [Ca^2+]free except where “no calcium” is indicated; see Methods) plus either 0 (“control”), 1 or 10 μM Ins(3,4,5,6)P4. FIG. 6B, Mean (±SE) fluorescence changes (n-5-11), during the 60 s that followed establishment of the standard whole-cell configuration, for cells perfused with inositol phosphates as indicated at the base of the bar graph. Where indicated, DIDS (100 μM) were added to the bath solution 30 min prior to patching the cells. Statistical significance was evaluated by Student's unpaired t-test (* P<0.01).
# The inositol phosphates used in this study were all purchased from CellSignals Inc (Lexington, Ky.). Insulin granule pH were monitored by combining the patch-clamp technique with confocal imaging. Pancreatic β-cells, isolated and cultured on glass coverslips for 2-24 h, were voltage clamped at −70 mV, as previously described (B9). LysoSensor-Green™ DND-189 (1 μM; Molecular Probes, Leiden, The Netherlands) was added during the last 30 min of cell culture and was also included in the extracellular buffer (B9) that continuously perfused the experimental chamber. All LSG experiments were performed at 20° C. to prevent exocytosis that otherwise interfered with the optical measurements (15). LSG fluorescence was excited using the 488 nm-line of a Zeiss 510 confocal microscope. The emitted light was collected with a 63×/1.3 NA oil objective and a >505 nm filter. Laser scanning was performed with low pixel resolution (128×128) and with 6 s intervals to minimize photo-bleaching. After gigaseal formation, it was ascertained that LSG fluorescence was stable for at least 30 s before the experiment commenced. The intracellular electrode solution contained: 125 mM K-glutamate, 10 mM KCl, 1 0 mM NaCl, 1 mM MgCl2, 5 mM HEPES, 3 mM Mg-ATP, 0.1 mM cAMP, 10 mM EGTA and 7 mM CaCl2 (˜0.4 μM free [Ca^2+]I; pH 7.2 with KOH). In some experiments, marked “no calcium”, there was no added Ca^2+, and the concentration of EGTA was 50 μM. Whole-cell capacitance measurements (at 33° C.) were made with the cells clamped at −70 mV, and the standard whole-cell configuration was established at t=0. Capacitance recordings were made using an EPC-7 patch-clamp amplifier equipped with the software Pulse (version 8.4 and later) and the X-chart extension (HEKA Elektronik, Lambrecht/Pfalz, Germany) (B9).
# [2] = system: insulin granules in pancreatic β-cells; assay: CCCP-mediated de-acidification of insulin granules, LSG fluorescence; format: cell-based, mouse; conditions: DIDS blockade of Cl− conductance, CCCP
# Procedure: FIG. 7A, Representative confocal images of LSG fluorescence immediately before (zero) and 60 s after perfusion of cells with intracellular buffer supplemented with 100 μM of the protonophore, CCCP, in the absence or presence of 10 μM Ins(3,4,5,6)P4. FIG. 7B, Representative time-courses for changes in LSG-fluorescence ([F/F0] as % of zero time) immediately after establishing a standard whole-cell configuration as in panel A, with intracellular medium (containing 0.4 μM [Ca^2+]free except where “no calcium” is indicated; see Methods) plus 100 μM CCCP, together with either 0 (“control”) or 10 μM Ins(3,4,5,6)P4. FIG. 7C, Mean (±SE) fluorescence changes (n=4-6), during the 60 s that followed establishment of the standard whole-cell configuration, for cells perfused with intracellular medium supplemented with inositol phosphates as indicated at the base of the bar graph ([…]).
# The inositol phosphates used in this study were all purchased from CellSignals Inc (Lexington, Ky.). Insulin granule pH were monitored by combining the patch-clamp technique with confocal imaging. Pancreatic β-cells, isolated and cultured on glass coverslips for 2-24 h, were voltage clamped at −70 mV, as previously described (B9). LysoSensor-Green™ DND-189 (1 μM; Molecular Probes, Leiden, The Netherlands) was added during the last 30 min of cell culture and was also included in the extracellular buffer (B9) that continuously perfused the experimental chamber. All LSG experiments were performed at 20° C. to prevent exocytosis that otherwise interfered with the optical measurements (15). LSG fluorescence was excited using the 488 nm-line of a Zeiss 510 confocal microscope. The emitted light was collected with a 63×/1.3 NA oil objective and a >505 nm filter. Laser scanning was performed with low pixel resolution (128×128) and with 6 s intervals to minimize photo-bleaching. After gigaseal formation, it was ascertained that LSG fluorescence was stable for at least 30 s before the experiment commenced. The intracellular electrode solution contained: 125 mM K-glutamate, 10 mM KCl, 1 0 mM NaCl, 1 mM MgCl2, 5 mM HEPES, 3 mM Mg-ATP, 0.1 mM cAMP, 10 mM EGTA and 7 mM CaCl2 (˜0.4 μM free [Ca^2+]I; pH 7.2 with KOH). In some experiments, marked “no calcium”, there was no added Ca^2+, and the concentration of EGTA was 50 μM. Whole-cell capacitance measurements (at 33° C.) were made with the cells clamped at −70 mV, and the standard whole-cell configuration was established at t=0. Capacitance recordings were made using an EPC-7 patch-clamp amplifier equipped with the software Pulse (version 8.4 and later) and the X-chart extension (HEKA Elektronik, Lambrecht/Pfalz, Germany) (B9). […]
# [3] = molecular target: T1, Recombinant human Ins(3,4,5,6)P4 1-kinase (Homo sapiens, UniProt Q13572); assay: Inositol phosphate kinase activity assay (HPLC); format: biochemical
# T1 construct: made in house; host or cells: E. coli
# T1 sequence (Q13572 1-414): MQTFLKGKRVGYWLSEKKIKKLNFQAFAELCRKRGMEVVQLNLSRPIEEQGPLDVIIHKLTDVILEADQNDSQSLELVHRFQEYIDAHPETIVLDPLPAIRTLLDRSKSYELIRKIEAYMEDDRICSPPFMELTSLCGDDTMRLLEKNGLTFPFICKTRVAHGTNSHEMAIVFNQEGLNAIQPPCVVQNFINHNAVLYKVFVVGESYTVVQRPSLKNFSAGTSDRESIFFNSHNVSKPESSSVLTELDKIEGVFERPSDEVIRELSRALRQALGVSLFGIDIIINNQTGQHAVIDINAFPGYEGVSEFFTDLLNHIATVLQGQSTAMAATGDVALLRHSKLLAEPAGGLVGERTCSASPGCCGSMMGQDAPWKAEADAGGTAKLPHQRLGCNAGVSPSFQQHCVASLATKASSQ
# Procedure: (§1) Inositol phosphate phosphatase activity was assayed in buffer containing 100 mM KCl, 20 mM HEPES pH 7.2, 5 mM ADP, 6 mM MgSO4, 0.3 mg/ml bovine serum albumin. Assays were acid-quenched, neutralized and analyzed by HPLC using a Synchropak Q100 columm (Caffrey et al., “Expanding Coincident Signaling by PTEN through its Inositol 1,3,4,5,6-Pentakisphosphate 3-phosphatase Activity,” FEBS Lett 499: 6-10 (2001)); 1 ml fractions were collected for 70 min., followed by 0.5 ml fractions. Inositol phosphate kinase activity was assayed in buffer containing 100 mM KCl, 20 mM HEPES pH 7.2, 5 mM ATP, 10 mM phosphocreatine, 6 mM MgSO4, 10 μg/ml creatine phosphokinase (Calbiochem), 0.3 mg/ml bovine serum albumin. Some assays were acid-quenched and analyzed by HPLC using a Synchropak Q100 column. Other reactions were heat-inactivated (95° C., 3 min) and analyzed by a metal dye detection, HPLC method (Mayr, “A novel metal-dye detection sysytem permits picomolar-range h.p.l.c. analysis of inositol polyphosphates from non-radioactively labelled cell or tissue specimens,” Biochem J 254: 585-591 (1988); Adelt et al., “Enzyme-assisted total synthesis of the optical antipodes D-myo-inositol 3,4,5-trisphosphate and D-myo-inositol 1,5,6-trisphosphate: aspects of their structure-activity relationship to biologically active inositol phosphates,” J Med Chem 42: 1262-1273 (1999)).
# Activity of 3.4 ug of inositol 3,4,5,6-tetrakisphosphate 1-kinase was assayed for 4 hr. at 37° C. in 200 μl buffer containing 100 mM KCl, 20 mM HEPES pH 7.2, 5 mM ATP, 10 mM phosphocreatine, 6 mM MgSO4, 10 μg/ml creatine phosphokinase (Calbiochem), 0.3 mg/ml bovine serum albumin and 50 uM of either inositol 3,4,5-trisphosphate, 4,5,6-trisphosphate or inositol 3,5,6-trisphosphate. Reactions were heat-inactivated (95° C., 3 min) and analyzed by a metal dye detection, HPLC method.
# […] (Manassas, Va.) supplied the CFPAC-1 cells and T84 cells. Recombinant human Ins(3,4,5,6)P4 1-kinase was expressed in E. coli and purified (Yang et al., “Multitasking in Signal Transduction by a Promiscuous Human Ins(3,4,5,6)P4 1-Kinase/Ins(1,3,4)P3 5/6-Kinase,” Biochem J 351: 551-555 (2000)). Non-radiolabeled Ins(1,3,4)P3 and Ins(1,3,4,5,6)P5 were purchased from CellSignals Inc (Lexington, Ky.). The details of the synthesis of non-radiolabeled Ins(3,4,5)P3, Ins(3,5,6)P3, Ins(4,5,6)P3 and Ins(3,4,6)P3 (as sodium salts) will be published separately by S.-K. C. Ins(3,4,6)P3 was also prepared by a different synthetic route (Mills et al., “Synthesis of D- and L-myo-inositol 1,4,6-trisphosphate, regioisomers of a ubiquitous second messenger,” J Org Chem 61: 8980-8987 (1996)). [^3H]Ins(1,3,4,5,6)P5 was prepared as previously described (Zhang et al., “The Transcriptional Regulator, Arg82, is a Hybrid Kinase with both Monophosphoinositol- and Diphosphoinositol-Polyphosphate Synthase Activity,” FEBS Lett 494: 208-212 (2001)). [^3H]Ins(1,3,4)P3 was prepared from [^3H]Ins(1,3,4,5)P4 (New England Nuclear) using recombinant Ins(1,4,5)P3/Ins(1,3,4,5)P4 5-phosphatase (Erneux et al., “Production of recombinant human brain type I inositol-1,4,5-trisphosphate 5-phosphatase in Escherichia coli. Lack of phosphorylation by protein kinase C,” Eur J Biochem 234: 598-602 (1995)). [^3H]Ins(1,3,4)P3 was converted to [^3H]Ins(1,3,4,6)P4 using Ins(1,3,4)P3 6-kinase activity (Yang et al., “Multitasking in Signal Transduction by a Promiscuous Human Ins(3,4,5,6)P4 1-Kinase/Ins(1,3,4)P3 5/6-Kinase,” Biochem J 351: 551-555 (2000)). [^3H]Ins(3,4)P2 was prepared by alkaline phosphatase attack on [^3H]Ins(1,3,4)P3 in 20 mM glycine (pH 9.0 with KOH). [^3H]Ins(1,4)P2 was purchased from New England Nuclear.
# [4] = molecular target: T2, Ins(1,3,4,5,6)P5 1-phosphatase activity of Ins(3,4,5,6)P4 kinase (Homo sapiens, UniProt Q13572); assay: Inositol phosphate phosphatase activity assay with ADP (HPLC); format: biochemical; conditions: 5 mM ADP, trace amounts of substrate
# T2 construct: made in house; host or cells: E. coli
# T2 sequence (Q13572 1-414): T1 sequence (Q13572 1-414)
# Procedure: Ins(3,4,5,6)P4 kinase (0.4 μg) was incubated for 30 min in 100 μl phosphatase assay buffer (see Methods) either with (closed circles) or without (open circles) 5 mM ADP plus trace-amounts of either [^3H]Ins(1,3,4,5,6)P5 (panel A) [^3H]Ins(1,3,4,6)P4 (panel B), or [^3H]Ins(1,3,4,5)P4 (panel C). Samples were analyzed by HPLC (see Methods). The elution positions of Ins(1,3,4)P3 and Ins(3,4,5,6)P4 were verified with genuine standards. The elution positions of Ins(1,3,4,6)P4 (106 min, panel B) and of Ins(1,3,4,5)P4 (110 min, panel C) exclude these as products of InsP5 dephosphorylation (panel A).
# Additional incubations were performed with 5 μM [^3H]Ins(1,3,4)P3 (approx. 1200 d.p.m.) plus either no Ins(1,3,4,5,6)P5 (open circles) or 5 μM non-radiolabeled Ins(1,3,4,5,6)P5 (closed circles); these reactions were assayed by HPLC (Synchropak Q100 column) and the InsP4 region of the chromatogram is shown in Panel B.
# as §1
whether the enzyme phosphorylates the inositol phosphate [3],product of ADP-dependent dephosphorylation [4],SMILES,effect on granule acidification [1],effect on loss of H+ from the granules [2]
,,"O=S(=O)(O)c1cc(N=C=S)ccc1C=Cc1ccc(N=C=S)cc1S(=O)(=O)O [DIDS, 4,4′-diisothiocyanostilbene-2,2′-disulfonic acid]",inhibited,inhibited
does not phosphorylate,"dephosphorylated to Ins(1,3,4)P3","O=P(O)(O)O[C@@H]1C(O)[C@H](OP(=O)(O)O)[C@@H](OP(=O)(O)O)C(O)[C@H]1OP(=O)(O)O (stereo partly shown) [Ins(1,3,4,6)P4]",,
